System: p53 signaling pathway in MT373 tumors
Assay: MT373 syngeneic sarcoma model: mouse p53 signaling pathway profiling panel
Format: in vivo
Conditions: for Actb* mRNA (housekeeping or reference gene), Fold Increase Over Vehicle Control or Percent Reduction Compared to Vehicle Control (%) / B2m* mRNA (housekeeping or reference gene), Fold Increase Over Vehicle Control or Percent Reduction Compared to Vehicle Control (%) / Gapdh* mRNA (housekeeping or reference gene), Fold Increase Over Vehicle Control or Percent Reduction Compared to Vehicle Control (%) / Gusb* mRNA (housekeeping or reference gene), Fold Increase Over Vehicle Control or Percent Reduction Compared to Vehicle Control (%) / Hsp90ab1* mRNA (housekeeping or reference gene), Fold Increase Over Vehicle Control or Percent Reduction Compared to Vehicle Control (%) / MGDC* (housekeeping or reference gene), Fold Increase Over Vehicle Control or Percent Reduction Compared to Vehicle Control (%) / Trp63 mRNA, Fold Increase Over Vehicle Control or Percent Reduction Compared to Vehicle Control (%) / Trp73 mRNA, Fold Increase Over Vehicle Control or Percent Reduction Compared to Vehicle Control (%) / Wt1 mRNA, Fold Increase Over Vehicle Control or Percent Reduction Compared to Vehicle Control (%) / Zmat3 mRNA, Fold Increase Over Vehicle Control or Percent Reduction Compared to Vehicle Control (%): MT373 tumors

CCn1c(C#CCNc2ccccc2)cc2cc(CNC3CCN(C)CC3)ccc21 [Compound 1, 1-Anilino-3-{1-ethyl-5-[(1-methyl-4-piperidylamino)methyl]-1H-indol-2-yl}-2-propyne]
Il6 mRNA change (150 mg/kg BID×1, 24 h): 85.31%
Mdm2 mRNA increase (150 mg/kg BID×1, 24 h): 5.96 fold
Sesn2 mRNA increase (150 mg/kg BID×1, 24 h): 2.45 fold
Zmat3 mRNA increase (150 mg/kg BID×1, 24 h): 6.17 fold
Actb* mRNA (housekeeping or reference gene), Fold Increase Over Vehicle Control or Percent Reduction Compared to Vehicle Control (%) (75 mg/kg BIDx1, 8 h): 1.60 fold or %
B2m* mRNA (housekeeping or reference gene), Fold Increase Over Vehicle Control or Percent Reduction Compared to Vehicle Control (%) (75 mg/kg BIDx1, 8 h): 1.16 fold or %
Gapdh* mRNA (housekeeping or reference gene), Fold Increase Over Vehicle Control or Percent Reduction Compared to Vehicle Control (%) (75 mg/kg BIDx1, 8 h): 11.24 fold or %
Gusb* mRNA (housekeeping or reference gene), Fold Increase Over Vehicle Control or Percent Reduction Compared to Vehicle Control (%) (75 mg/kg BIDx1, 8 h): 1.12 fold or %
Hsp90ab1* mRNA (housekeeping or reference gene), Fold Increase Over Vehicle Control or Percent Reduction Compared to Vehicle Control (%) (75 mg/kg BIDx1, 8 h): 10.06 fold or %
MGDC* (housekeeping or reference gene), Fold Increase Over Vehicle Control or Percent Reduction Compared to Vehicle Control (%) (75 mg/kg BIDx1, 8 h): 1.79 fold or %
Trp63 mRNA, Fold Increase Over Vehicle Control or Percent Reduction Compared to Vehicle Control (%) (75 mg/kg BIDx1, 8 h): 3.58 fold or %
Trp73 mRNA, Fold Increase Over Vehicle Control or Percent Reduction Compared to Vehicle Control (%) (75 mg/kg BIDx1, 8 h): 16.09 fold or %
Wt1 mRNA, Fold Increase Over Vehicle Control or Percent Reduction Compared to Vehicle Control (%) (75 mg/kg BIDx1, 8 h): 28.78 fold or %
Zmat3 mRNA, Fold Increase Over Vehicle Control or Percent Reduction Compared to Vehicle Control (%) (75 mg/kg BIDx1, 8 h): 6.25 fold or %
Actb* mRNA (housekeeping or reference gene), Fold Increase Over Vehicle Control or Percent Reduction Compared to Vehicle Control (%) (75 mg/kg BIDx1, 24 h): 1.08 fold or %
B2m* mRNA (housekeeping or reference gene), Fold Increase Over Vehicle Control or Percent Reduction Compared to Vehicle Control (%) (75 mg/kg BIDx1, 24 h): 1.14 fold or %
Gapdh* mRNA (housekeeping or reference gene), Fold Increase Over Vehicle Control or Percent Reduction Compared to Vehicle Control (%) (75 mg/kg BIDx1, 24 h): 13.68 fold or %
Gusb* mRNA (housekeeping or reference gene), Fold Increase Over Vehicle Control or Percent Reduction Compared to Vehicle Control (%) (75 mg/kg BIDx1, 24 h): 1.25 fold or %
Hsp90ab1* mRNA (housekeeping or reference gene), Fold Increase Over Vehicle Control or Percent Reduction Compared to Vehicle Control (%) (75 mg/kg BIDx1, 24 h): 17.39 fold or %
MGDC* (housekeeping or reference gene), Fold Increase Over Vehicle Control or Percent Reduction Compared to Vehicle Control (%) (75 mg/kg BIDx1, 24 h): 1.27 fold or %
Trp63 mRNA, Fold Increase Over Vehicle Control or Percent Reduction Compared to Vehicle Control (%) (75 mg/kg BIDx1, 24 h): 1.58 fold or %
Trp73 mRNA, Fold Increase Over Vehicle Control or Percent Reduction Compared to Vehicle Control (%) (75 mg/kg BIDx1, 24 h): 1.01 fold or %
Wt1 mRNA, Fold Increase Over Vehicle Control or Percent Reduction Compared to Vehicle Control (%) (75 mg/kg BIDx1, 24 h): 21.25 fold or %
Zmat3 mRNA, Fold Increase Over Vehicle Control or Percent Reduction Compared to Vehicle Control (%) (75 mg/kg BIDx1, 24 h): 4.14 fold
Actb* mRNA (housekeeping or reference gene), Fold Increase Over Vehicle Control or Percent Reduction Compared to Vehicle Control (%) (75 mg/kg BIDx1, 48 h): 1.07 fold or %
B2m* mRNA (housekeeping or reference gene), Fold Increase Over Vehicle Control or Percent Reduction Compared to Vehicle Control (%) (75 mg/kg BIDx1, 48 h): 1.27 fold or %
Gapdh* mRNA (housekeeping or reference gene), Fold Increase Over Vehicle Control or Percent Reduction Compared to Vehicle Control (%) (75 mg/kg BIDx1, 48 h): 34.54 fold or %
Gusb* mRNA (housekeeping or reference gene), Fold Increase Over Vehicle Control or Percent Reduction Compared to Vehicle Control (%) (75 mg/kg BIDx1, 48 h): 1.31 fold or %
Hsp90ab1* mRNA (housekeeping or reference gene), Fold Increase Over Vehicle Control or Percent Reduction Compared to Vehicle Control (%) (75 mg/kg BIDx1, 48 h): 12.45 fold or %
MGDC* (housekeeping or reference gene), Fold Increase Over Vehicle Control or Percent Reduction Compared to Vehicle Control (%) (75 mg/kg BIDx1, 48 h): 1.78 fold or %
Trp63 mRNA, Fold Increase Over Vehicle Control or Percent Reduction Compared to Vehicle Control (%) (75 mg/kg BIDx1, 48 h): 2.65 fold or %
Trp73 mRNA, Fold Increase Over Vehicle Control or Percent Reduction Compared to Vehicle Control (%) (75 mg/kg BIDx1, 48 h): 3.40 fold or %
Wt1 mRNA, Fold Increase Over Vehicle Control or Percent Reduction Compared to Vehicle Control (%) (75 mg/kg BIDx1, 48 h): 21.51 fold or %
Zmat3 mRNA, Fold Increase Over Vehicle Control or Percent Reduction Compared to Vehicle Control (%) (75 mg/kg BIDx1, 48 h): 1.02 fold or %
Actb* mRNA (housekeeping or reference gene), Fold Increase Over Vehicle Control or Percent Reduction Compared to Vehicle Control (%) (75 mg/kg BIDx1, 72 h): 1.06 fold or %
B2m* mRNA (housekeeping or reference gene), Fold Increase Over Vehicle Control or Percent Reduction Compared to Vehicle Control (%) (75 mg/kg BIDx1, 72 h): 1.11 fold or %
Gapdh* mRNA (housekeeping or reference gene), Fold Increase Over Vehicle Control or Percent Reduction Compared to Vehicle Control (%) (75 mg/kg BIDx1, 72 h): 14.41 fold or %
Gusb* mRNA (housekeeping or reference gene), Fold Increase Over Vehicle Control or Percent Reduction Compared to Vehicle Control (%) (75 mg/kg BIDx1, 72 h): 1.11 fold or %
Hsp90ab1* mRNA (housekeeping or reference gene), Fold Increase Over Vehicle Control or Percent Reduction Compared to Vehicle Control (%) (75 mg/kg BIDx1, 72 h): 7.83 fold or %
MGDC* (housekeeping or reference gene), Fold Increase Over Vehicle Control or Percent Reduction Compared to Vehicle Control (%) (75 mg/kg BIDx1, 72 h): 1.36 fold or %
Trp63 mRNA, Fold Increase Over Vehicle Control or Percent Reduction Compared to Vehicle Control (%) (75 mg/kg BIDx1, 72 h): 1.62 fold or %
Trp73 mRNA, Fold Increase Over Vehicle Control or Percent Reduction Compared to Vehicle Control (%) (75 mg/kg BIDx1, 72 h): 1.00 fold or %

From patent US20230049952A1, “METHODS AND COMPOUNDS FOR RESTORING MUTANT P53 FUNCTION” (PMV Pharmaceuticals, Inc., priority 2020, published 2023)
